Source: PubChem BioAssay AID248 (DTP/NCI, 2004)
Values joined by “and” are separate entries in the source; they are usually repeats but may differ in a detail not shown here. Identical values can stand only once. Toxic doses and inconclusive results are not listed.

Tested on: L1210 leukemia ip in BDF1 mice, survival T/C
Test: NCI In Vivo Anticancer Drug Screen. Data for tumor model L1210 Leukemia (intraperitoneal) in B6D2F1 (BDF1) mice
Conditions: endpoint: mean survival time, higher = longer survival
Outline: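 Ratio derived from survival: compound-dosed mice over vehicle-dosed mice, all bearing a transplantable tumor.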

[1] = dose: 100.0 mg/kg/injection, schedule: Q01DX009 (ip), vehicle: other
[2] = dose: 200.0 mg/kg/injection, schedule: Q01DX009 (ip), vehicle: other
[3] = dose: 100.0 mg/kg/injection, schedule: Q01DX001 (ip), vehicle: carboxymethylcellulose (CMC)
[4] = dose: 200.0 mg/kg/injection, schedule: Q01DX001 (ip), vehicle: carboxymethylcellulose (CMC)
[5] = dose: 400.0 mg/kg/injection, schedule: Q01DX001 (ip), vehicle: carboxymethylcellulose (CMC)
[6] = dose: 100.0 mg/kg/injection, schedule: Q01DX009 (ip), vehicle: saline with Tween-80
[7] = dose: 100.0 mg/kg/injection, schedule: Q04DX003 (ip), vehicle: saline with Tween-80
[8] = dose: 200.0 mg/kg/injection, schedule: Q04DX003 (ip), vehicle: saline with Tween-80
[9] = dose: 400.0 mg/kg/injection, schedule: Q01DX009 (ip), vehicle: saline with Tween-80
[10] = dose: 400.0 mg/kg/injection, schedule: Q04DX003 (ip), vehicle: saline with Tween-80
[11] = dose: 200.0 mg/kg/injection, schedule: Q01DX009 (ip), vehicle: saline with Tween-80
[12] = dose: 100.0 mg/kg/injection, schedule: Q01DX009 (ip), vehicle: Klucel (hydroxypropylcellulose) (HPC)
[13] = dose: 200.0 mg/kg/injection, schedule: Q01DX009 (ip), vehicle: Klucel (hydroxypropylcellulose) (HPC)
[14] = dose: 400.0 mg/kg/injection, schedule: Q01DX009 (ip), vehicle: Klucel (hydroxypropylcellulose) (HPC)
[15] = dose: 100.0 mg/kg/injection, schedule: Q04DX003 (ip), vehicle: Klucel (hydroxypropylcellulose) (HPC)
[16] = dose: 200.0 mg/kg/injection, schedule: Q04DX003 (ip), vehicle: Klucel (hydroxypropylcellulose) (HPC)
[17] = dose: 400.0 mg/kg/injection, schedule: Q04DX003 (ip), vehicle: Klucel (hydroxypropylcellulose) (HPC)
[18] = dose: 100.0 mg/kg/injection, schedule: Q01DX001 (ip), vehicle: saline
[19] = dose: 200.0 mg/kg/injection, schedule: Q01DX001 (ip), vehicle: saline
[20] = dose: 400.0 mg/kg/injection, schedule: Q01DX001 (ip), vehicle: saline

Question: `O=C(O)CCC(=O)CCC(=O)O` was tested. Which T/C [1] did it give?
Answer: 95 % of control

Question: And the T/C [2]?
Answer: 106 % of control

Question: And the T/C (dose: 400.0 mg/kg/injection, schedule: Q01DX009 (ip), vehicle: other)?
Answer: 106 % of control

Question: How did the T/C (dose: 50.0 mg/kg/injection, schedule: Q01DX001 (ip), vehicle: carboxymethylcellulose (CMC)) turn out when `ClCCN(CCCl)c1ccc(CNCCCNCc2ccc(N(CCCl)CCCl)cc2Cl)c(Cl)c1` was run?
Answer: 93 % of control

Question: Which results are given for `CCCCCCCC(=O)N(CCCCC)CCCCC`?
Answer: T/C [3]: 99 % of control; T/C (dose: 100.0 mg/kg/injection, schedule: Q01DX009 (ip), vehicle: carboxymethylcellulose (CMC)): 93 % of control and 101 % of control; T/C (dose: 100.0 mg/kg/injection, schedule: Q04DX002 (ip), vehicle: carboxymethylcellulose (CMC)): 97 % of control; T/C (dose: 100.0 mg/kg/injection, schedule: Q04DX003 (ip), vehicle: carboxymethylcellulose (CMC)): 101 % of control; T/C [4]: 96 % of control; T/C (dose: 200.0 mg/kg/injection, schedule: Q01DX009 (ip), vehicle: carboxymethylcellulose (CMC)): 97 % of control and 90 % of control; T/C (dose: 200.0 mg/kg/injection, schedule: Q04DX002 (ip), vehicle: carboxymethylcellulose (CMC)): 107 % of control; T/C (dose: 200.0 mg/kg/injection, schedule: Q04DX003 (ip), vehicle: carboxymethylcellulose (CMC)): 98 % of control; T/C [5]: 91 % of control; T/C (dose: 400.0 mg/kg/injection, schedule: Q04DX002 (ip), vehicle: carboxymethylcellulose (CMC)): 96 % of control; T/C (dose: 400.0 mg/kg/injection, schedule: Q04DX003 (ip), vehicle: carboxymethylcellulose (CMC)): 102 % of control

Question: What does the source list for `Clc1ccc(-c2nnc(-c3cccc4ccccc34)o2)cc1Cl`?
Answer: T/C [6]: 89 % of control; T/C [7]: 86 % of control; T/C [8]: 92 % of control; T/C [9]: 86 % of control; T/C [10]: 86 % of control

Question: `Cc1cc(NC(=O)Nc2ccc(Cl)cc2C)no1` was tested. Which T/C (dose: 12.5 mg/kg/injection, schedule: Q01DX009 (ip), vehicle: Klucel (hydroxypropylcellulose) (HPC)) did it give?
Answer: 102 % of control

Question: What about the T/C (dose: 25.0 mg/kg/injection, schedule: Q01DX009 (ip), vehicle: Klucel (hydroxypropylcellulose) (HPC)) of the same compound?
Answer: 97 % of control

Question: And the T/C (dose: 50.0 mg/kg/injection, schedule: Q01DX009 (ip), vehicle: Klucel (hydroxypropylcellulose) (HPC))?
Answer: 91 % of control

Question: `CCCCC/C(C=O)=C\c1ccccc1` was tested. Which T/C [6] did it give?
Answer: 104 % of control

Question: And the T/C [7]?
Answer: 94 % of control

Question: What about the T/C [11] of the same compound?
Answer: 91 % of control

Question: And the T/C [8]?
Answer: 96 % of control

Question: What about the T/C [9] of the same compound?
Answer: 93 % of control

Question: And the T/C [10]?
Answer: 105 % of control

Question: Which T/C [6] does the source give for `Nc1cc(O)cc(O)c1` here?
Answer: 95 % of control

Question: And the T/C [7]?
Answer: 91 % of control

Question: What about the T/C [11] of the same compound?
Answer: 95 % of control

Question: What about the T/C [8] of the same compound?
Answer: 98 % of control

Question: What about the T/C [9] of the same compound?
Answer: 102 % of control

Question: What about the T/C [10] of the same compound?
Answer: 89 % of control

Question: Which results are given for `CN(Cc1ccccc1Cl)C(=S)NC1CCCCC1`?
Answer: T/C [12]: 92 % of control; T/C [13]: 93 % of control; T/C [14]: 93 % of control

Question: How did the T/C [12] turn out when `Cc1ccc(C)c(OS(=O)(=O)c2ccc([N+](=O)[O-])cc2)c1` was run?
Answer: 98 % of control

Question: And the T/C [15]?
Answer: 100 % of control

Question: What about the T/C [13] of the same compound?
Answer: 92 % of control

Question: What about the T/C [16] of the same compound?
Answer: 91 % of control

Question: What about the T/C [14] of the same compound?
Answer: 97 % of control

Question: What about the T/C [17] of the same compound?
Answer: 89 % of control

Question: How did the T/C (dose: 3.12 mg/kg/injection, schedule: Q01DX009 (ip), vehicle: saline) turn out when `COC1OC(C)C(O)C(O)[CH]1[Hg][O]C(C)=O` (stereo not given) was run?
Answer: 113 % of control

Question: What about the T/C (dose: 5.0 mg/kg/injection, schedule: Q01DX001 (ip), vehicle: saline) of the same compound?
Answer: 110 % of control

Question: And the T/C (dose: 6.25 mg/kg/injection, schedule: Q01DX009 (ip), vehicle: saline)?
Answer: 89 % of control

Question: And the T/C (dose: 6.25 mg/kg/injection, schedule: Q04DX003 (ip), vehicle: saline)?
Answer: 102 % of control

Question: And the T/C (dose: 10.0 mg/kg/injection, schedule: Q01DX001 (ip), vehicle: saline)?
Answer: 103 % of control

Question: And the T/C (dose: 12.5 mg/kg/injection, schedule: Q04DX003 (ip), vehicle: saline)?
Answer: 106 % of control

Question: With `CC(c1ccccc1)n1cnc2c(Cl)ncnc21` (stereo not given) as the compound, how does the T/C [18] read?
Answer: 98 % of control

Question: What about the T/C [19] of the same compound?
Answer: 101 % of control

Question: And the T/C [20]?
Answer: 110 % of control

Question: What does the source list for `CC(=O)CCC(=O)O`?
Answer: T/C (dose: 1.56 mg/kg/injection, schedule: Q01DX Z (ip), vehicle: other): 98 % of control; T/C (dose: 3.13 mg/kg/injection, schedule: Q01DX Z (ip), vehicle: other): 96 % of control; T/C (dose: 6.25 mg/kg/injection, schedule: Q01DX Z (ip), vehicle: other): 96 % of control; T/C (dose: 12.5 mg/kg/injection, schedule: Q01DX Z (ip), vehicle: other): 95 % of control; T/C (dose: 25.0 mg/kg/injection, schedule: Q01DX Z (ip), vehicle: other): 95 % of control; T/C (dose: 50.0 mg/kg/injection, schedule: Q01DX Z (ip), vehicle: other): 98 % of control; T/C (dose: 100.0 mg/kg/injection, schedule: Q01DX Z (ip), vehicle: other): 113 % of control; T/C (dose: 100.0 mg/kg/injection, schedule: Q04DX002 (ip), vehicle: saline): 88 % of control; T/C (dose: 200.0 mg/kg/injection, schedule: Q01DX Z (ip), vehicle: other): 96 % of control; T/C (dose: 200.0 mg/kg/injection, schedule: Q04DX002 (ip), vehicle: saline): 100 % of control; T/C (dose: 400.0 mg/kg/injection, schedule: Q04DX002 (ip), vehicle: saline): 118 % of control

Question: What does the source list for `OC(c1ccccc1)(c1ccccc1)C1CCc2cc3ccccc3nc21` (stereo not given)?
Answer: T/C (dose: 50.0 mg/kg/injection, schedule: Q01DX009 (ip), vehicle: saline with Tween-80): 95 % of control; T/C [6]: 98 % of control; T/C [11]: 95 % of control

Question: How did the T/C [18] turn out when `CC(C)(C)OC(=O)C(=O)C(OC(C)(C)C)C(=O)OC(C)(C)C` (stereo not given) was run?
Answer: 98 % of control

Question: What about the T/C [19] of the same compound?
Answer: 102 % of control

Question: What does the source list for `CCOC(=O)c1cnc(N)nc1`?
Answer: T/C [15]: 97 % of control; T/C [16]: 101 % of control; T/C [17]: 98 % of control

Question: With `O=C(c1ccccc1)C1(c2ccccc2)CCP(c2ccccc2)(c2ccccc2)(c2ccccc2)O1` (stereo not given) as the compound, how does the T/C (dose: 15.0 mg/kg/injection, schedule: Q01DX001 (ip), vehicle: carboxymethylcellulose (CMC)) read?
Answer: 93 % of control

Question: And the T/C (dose: 30.0 mg/kg/injection, schedule: Q01DX001 (ip), vehicle: carboxymethylcellulose (CMC))?
Answer: 95 % of control

Question: What about the T/C (dose: 60.0 mg/kg/injection, schedule: Q01DX001 (ip), vehicle: carboxymethylcellulose (CMC)) of the same compound?
Answer: 96 % of control

Question: `S=c1nc[nH]c2c1ncn2CN1CCCCC1` was tested. Which T/C (dose: 25.0 mg/kg/injection, schedule: Q01DX009 (ip), vehicle: other) did it give?
Answer: 151 % of control

Question: And the T/C (dose: 25.0 mg/kg/injection, schedule: Q01DX Z (ip), vehicle: carboxymethylcellulose (CMC))?
Answer: 109 % of control

Question: What about the T/C (dose: 50.0 mg/kg/injection, schedule: Q01DX009 (ip), vehicle: other) of the same compound?
Answer: 192 % of control

Question: What about the T/C (dose: 50.0 mg/kg/injection, schedule: Q01DX Z (ip), vehicle: carboxymethylcellulose (CMC)) of the same compound?
Answer: 102 % of control

Question: What about the T/C [1] of the same compound?
Answer: 116 % of control

Question: And the T/C (dose: 100.0 mg/kg/injection, schedule: Q01DX Z (ip), vehicle: carboxymethylcellulose (CMC))?
Answer: 120 % of control

Question: And the T/C [2]?
Answer: 102 % of control

Question: Which T/C (dose: 25.0 mg/kg/injection, schedule: Q01DX001 (ip), vehicle: Klucel (hydroxypropylcellulose) (HPC)) does the source give for `CC(=O)Nc1nc(C)c(CCCNS(=O)(=O)c2ccc(N)cc2)c(=O)[nH]1` here?
Answer: 102 % of control

Question: And the T/C (dose: 50.0 mg/kg/injection, schedule: Q01DX001 (ip), vehicle: Klucel (hydroxypropylcellulose) (HPC))?
Answer: 92 % of control

Question: What about the T/C (dose: 100.0 mg/kg/injection, schedule: Q01DX001 (ip), vehicle: Klucel (hydroxypropylcellulose) (HPC)) of the same compound?
Answer: 95 % of control

Question: `CCOC(=O)Nc1cc(N)c([N+](=O)[O-])c(NC(c2ccccc2)c2ccccc2)n1` was tested. Which T/C [3] did it give?
Answer: 95 % of control

Question: What about the T/C [4] of the same compound?
Answer: 87 % of control

Question: And the T/C [5]?
Answer: 92 % of control

Question: `COc1cc2c(cc1OC)/C(=C\C#N)NCC2` was tested. Which T/C [18] did it give?
Answer: 98 % of control

Question: And the T/C [19]?
Answer: 98 % of control

Question: And the T/C [20]?
Answer: 100 % of control

Question: With `c1ccc(OCC2(N3CCCCC3)CCCC2)cc1` as the compound, how does the T/C (dose: 100.0 mg/kg/injection, schedule: Q04DX002 (ip), vehicle: saline with Tween-80) read?
Answer: 97 % of control

Question: What does the source list for `CC1=CC(=O)CC(C)(C)C1`?
Answer: T/C [6]: 101 % of control; T/C [11]: 101 % of control; T/C [9]: 90 % of control
